Measured values reported in PubChem BioAssay AID2060901 (Molecular Pharmacology Branch, DTP, NCI, 2025).

System: 422866-222-R5-J1-PDC complex spheroids viability
Test: Anticancer human tumor 422866-222-R5-J1-PDC patient-derived pancreatic adenocarcinoma cell line growth inhibition [RAS]
Conditions: for IC50: curve of first compound; for viability, T/C: stronger effect = lower value; active = viability on the fitted dose curve at most 10% of control; inactive = the rest
Outline: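 Agents were tested in combination matrices in half-log decrements from a top concentration at or near clinical Cmax (10 microM if undetermined). Targets were multi-cell spheroids of tumour lines plus HUVEC and MSC stromal cells.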
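Note: spheroids exposed to compounds for 7 days.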
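Throughout, for viability, T/C: 100% = DMSO vehicle control viability.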

CC(=O)OC12COC1CC(O)C1(C)C(=O)C(O)C3=C(C)C(OC(=O)C(O)C(NC(=O)OC(C)(C)C)c4ccccc4)CC(O)(C(OC(=O)c4ccccc4)C21)C3(C)C (centres undefined) + C=CC(=O)N1CCN(c2nc(OCC3CCCN3C)nc3c(F)c(-c4nc(N)cc(C)c4C(F)(F)F)c(Cl)cc23)C(C)C1
< 31.6 nM: IC50 (second compound 0.00316 µM) | IC50 (second compound 0.01 µM) | IC50 (second compound 0.0316 µM) | IC50 (second compound 0.1 µM) | IC50 (second compound 0.316 µM) | IC50 (second compound 1 µM)
inactive: viability, T/C (second compound 0.00316 µM, first compound 0.0316 µM) 19.5% | viability, T/C (second compound 0.00316 µM, first compound 0.1 µM) 21.1% | viability, T/C (second compound 0.00316 µM, first compound 0.316 µM) 26.7% | viability, T/C (second compound 0.00316 µM, first compound 1 µM) 22% | viability, T/C (second compound 0.00316 µM, first compound 3.16 µM) 19.1% | viability, T/C (second compound 0.00316 µM, first compound 10 µM) 26% | viability, T/C (second compound 0.01 µM, first compound 0.0316 µM) 21.5% | viability, T/C (second compound 0.01 µM, first compound 0.1 µM) 20.8% | viability, T/C (second compound 0.01 µM, first compound 0.316 µM) 20.4% | viability, T/C (second compound 0.01 µM, first compound 1 µM) 17.6% | viability, T/C (second compound 0.01 µM, first compound 3.16 µM) 20.4% | viability, T/C (second compound 0.01 µM, first compound 10 µM) 19.6% | viability, T/C (second compound 0.0316 µM, first compound 0.0316 µM) 17.9% | viability, T/C (second compound 0.0316 µM, first compound 0.1 µM) 20.8% | viability, T/C (second compound 0.0316 µM, first compound 0.316 µM) 19.3% | viability, T/C (second compound 0.0316 µM, first compound 1 µM) 17% | viability, T/C (second compound 0.0316 µM, first compound 3.16 µM) 21.2% | viability, T/C (second compound 0.0316 µM, first compound 10 µM) 20.9% | viability, T/C (second compound 0.1 µM, first compound 0.0316 µM) 17.3% | viability, T/C (second compound 0.1 µM, first compound 0.1 µM) 21% | viability, T/C (second compound 0.1 µM, first compound 0.316 µM) 18.1% | viability, T/C (second compound 0.1 µM, first compound 1 µM) 19.2% | viability, T/C (second compound 0.1 µM, first compound 3.16 µM) 22.5% | viability, T/C (second compound 0.1 µM, first compound 10 µM) 22.5% | viability, T/C (second compound 0.316 µM, first compound 0.0316 µM) 15.3% | viability, T/C (second compound 0.316 µM, first compound 0.1 µM) 17.8% | viability, T/C (second compound 0.316 µM, first compound 0.316 µM) 19.5% | viability, T/C (second compound 0.316 µM, first compound 1 µM) 17.6% | viability, T/C (second compound 0.316 µM, first compound 3.16 µM) 18.4% | viability, T/C (second compound 0.316 µM, first compound 10 µM) 23.3% | viability, T/C (second compound 1 µM, first compound 0.0316 µM) 16.6% | viability, T/C (second compound 1 µM, first compound 0.1 µM) 17.7% | viability, T/C (second compound 1 µM, first compound 0.316 µM) 22.7% | viability, T/C (second compound 1 µM, first compound 1 µM) 20% | viability, T/C (second compound 1 µM, first compound 3.16 µM) 22.3% | viability, T/C (second compound 1 µM, first compound 10 µM) 22.6%

CC1(C)CCC(Nc2ncc(C(F)(F)F)c(-c3c[nH]c4c(P(C)(C)=O)c(C#N)ccc34)n2)CN1 (centres undefined) + C=CC(=O)N1CCN(c2nc(OCC3CCCN3C)nc3c(F)c(-c4nc(N)cc(C)c4C(F)(F)F)c(Cl)cc23)C(C)C1
inactive: viability, T/C (second compound 0.00316 µM, first compound 0.000949 µM) 27.1% | viability, T/C (second compound 0.00316 µM, first compound 0.003 µM) 29.2% | viability, T/C (second compound 0.00316 µM, first compound 0.00949 µM) 25.8% | viability, T/C (second compound 0.00316 µM, first compound 0.03 µM) 25.1% | viability, T/C (second compound 0.00316 µM, first compound 0.0949 µM) 27.3% | viability, T/C (second compound 0.00316 µM, first compound 0.3 µM) 28.8% | viability, T/C (second compound 0.01 µM, first compound 0.000949 µM) 23.1% | viability, T/C (second compound 0.01 µM, first compound 0.003 µM) 20.7% | viability, T/C (second compound 0.01 µM, first compound 0.00949 µM) 28.3% | viability, T/C (second compound 0.01 µM, first compound 0.03 µM) 24.7% | viability, T/C (second compound 0.01 µM, first compound 0.0949 µM) 26.8% | viability, T/C (second compound 0.01 µM, first compound 0.3 µM) 28.3% | viability, T/C (second compound 0.0316 µM, first compound 0.000949 µM) 24.6% | viability, T/C (second compound 0.0316 µM, first compound 0.003 µM) 24.4% | viability, T/C (second compound 0.0316 µM, first compound 0.00949 µM) 22.2% | viability, T/C (second compound 0.0316 µM, first compound 0.03 µM) 23.3% | viability, T/C (second compound 0.0316 µM, first compound 0.0949 µM) 27.2% | viability, T/C (second compound 0.0316 µM, first compound 0.3 µM) 27.4% | viability, T/C (second compound 0.1 µM, first compound 0.000949 µM) 24.6% | viability, T/C (second compound 0.1 µM, first compound 0.003 µM) 22.3% | viability, T/C (second compound 0.1 µM, first compound 0.00949 µM) 25.5% | viability, T/C (second compound 0.1 µM, first compound 0.03 µM) 23.4% | viability, T/C (second compound 0.1 µM, first compound 0.0949 µM) 26.6% | viability, T/C (second compound 0.1 µM, first compound 0.3 µM) 27.6% | viability, T/C (second compound 0.316 µM, first compound 0.000949 µM) 20% | viability, T/C (second compound 0.316 µM, first compound 0.003 µM) 20.3% | viability, T/C (second compound 0.316 µM, first compound 0.00949 µM) 25.5% | viability, T/C (second compound 0.316 µM, first compound 0.03 µM) 24.6% | viability, T/C (second compound 0.316 µM, first compound 0.0949 µM) 25.8% | viability, T/C (second compound 0.316 µM, first compound 0.3 µM) 24.5% | viability, T/C (second compound 1 µM, first compound 0.000949 µM) 22.1% | viability, T/C (second compound 1 µM, first compound 0.003 µM) 22.3% | viability, T/C (second compound 1 µM, first compound 0.00949 µM) 21.1% | viability, T/C (second compound 1 µM, first compound 0.03 µM) 24.2% | viability, T/C (second compound 1 µM, first compound 0.0949 µM) 30.4% | viability, T/C (second compound 1 µM, first compound 0.3 µM) 26.2%
< 0.949 nM: IC50 (second compound 0.00316 µM) | IC50 (second compound 0.01 µM) | IC50 (second compound 0.0316 µM) | IC50 (second compound 0.1 µM) | IC50 (second compound 0.316 µM) | IC50 (second compound 1 µM)
